From paper PMC9018117 (The Journal of nutritional biochemistry, 2021)
Each block holds one molecule with its values, some of them ahead of it.

Key:
human recombinant COX-1 = human recombinant COX-1 (Homo sapiens, UniProt P23219); experiment: COX-1 activity assay using purified enzyme; type: biochemical
human recombinant 5-LOX [1] = biological target: T1, human recombinant 5-LOX (Homo sapiens, UniProt P09917); experiment: 5-LOX activity, ferrous oxidation-xylenol orange; type: biochemical
T1 sequence (P09917 1-674): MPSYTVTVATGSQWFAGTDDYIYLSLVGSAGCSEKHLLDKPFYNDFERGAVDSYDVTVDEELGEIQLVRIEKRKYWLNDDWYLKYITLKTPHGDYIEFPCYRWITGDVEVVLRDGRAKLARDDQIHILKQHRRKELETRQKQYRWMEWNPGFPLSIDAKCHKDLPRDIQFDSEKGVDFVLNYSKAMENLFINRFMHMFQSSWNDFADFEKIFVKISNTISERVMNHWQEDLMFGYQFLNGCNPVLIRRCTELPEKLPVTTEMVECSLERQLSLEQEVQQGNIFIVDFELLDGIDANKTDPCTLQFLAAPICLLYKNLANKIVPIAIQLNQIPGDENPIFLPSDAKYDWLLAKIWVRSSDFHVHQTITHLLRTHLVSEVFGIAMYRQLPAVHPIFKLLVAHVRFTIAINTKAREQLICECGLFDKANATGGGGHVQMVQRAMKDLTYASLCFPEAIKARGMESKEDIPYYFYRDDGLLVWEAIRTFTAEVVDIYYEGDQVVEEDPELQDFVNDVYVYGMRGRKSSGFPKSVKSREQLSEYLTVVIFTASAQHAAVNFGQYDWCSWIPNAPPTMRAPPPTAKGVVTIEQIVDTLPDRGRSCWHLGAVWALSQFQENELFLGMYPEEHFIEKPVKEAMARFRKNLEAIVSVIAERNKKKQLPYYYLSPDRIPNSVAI

[2] = test system: LTB4 formation in differentiated HL-60 cells; experiment: LTB4 formation in stimulated neutrophil-like differentiated HL-60 cells; type: cell-based, human; details: for Effect on THAP-stimulated LTB4 (in words): at up to 50 μM, not shown
[3] = test system: 5-LOX translocation in differentiated HL-60 cells; details: cited from earlier work
[4] = test system: 5-LOX translocation in differentiated HL-60 cells; experiment: 5-LOX translocation from cytosol to nucleus by western blotting; type: cell-based, human; details: 20 μM, 30 min preincubation
[5] = test system: COX-2-mediated PGE2 in A549 cells; experiment: COX-2 activity in intact-cell assay, IL-1β-stimulated A549 cells; type: cell-based, human; details: read-out: IC50 for inhibition of COX-2-mediated PGE2; IL-1β-stimulated A549 epithelial cells; 5 μM AA
human recombinant 5-LOX [6] = biological target: T1, human recombinant 5-LOX; experiment: 5-LOX enzyme kinetics; type: biochemical; details: for Nature of inhibition of 5-LOX: Lineweaver-Burk double reciprocal plot
LTB4 in cells = details: read-out: IC50 for inhibition of LTB4 in cells; ref 10 (Pein et al); cited from earlier work
5-LOX = details: read-out: IC50 for inhibition of 5-LOX; ref 10 (Pein et al); cited from earlier work
5-LOX enzyme kinetics = substrate: CCCCC/C=C\C/C=C\C/C=C\C/C=C\CCCC(=O)O; experiment: 5-LOX enzyme kinetics; type: biochemical, human; details: other: substrate AA 5–50 μM; oxygen consumption; pH 7.4

Chain of human recombinant COX-1 (P23219 24-599): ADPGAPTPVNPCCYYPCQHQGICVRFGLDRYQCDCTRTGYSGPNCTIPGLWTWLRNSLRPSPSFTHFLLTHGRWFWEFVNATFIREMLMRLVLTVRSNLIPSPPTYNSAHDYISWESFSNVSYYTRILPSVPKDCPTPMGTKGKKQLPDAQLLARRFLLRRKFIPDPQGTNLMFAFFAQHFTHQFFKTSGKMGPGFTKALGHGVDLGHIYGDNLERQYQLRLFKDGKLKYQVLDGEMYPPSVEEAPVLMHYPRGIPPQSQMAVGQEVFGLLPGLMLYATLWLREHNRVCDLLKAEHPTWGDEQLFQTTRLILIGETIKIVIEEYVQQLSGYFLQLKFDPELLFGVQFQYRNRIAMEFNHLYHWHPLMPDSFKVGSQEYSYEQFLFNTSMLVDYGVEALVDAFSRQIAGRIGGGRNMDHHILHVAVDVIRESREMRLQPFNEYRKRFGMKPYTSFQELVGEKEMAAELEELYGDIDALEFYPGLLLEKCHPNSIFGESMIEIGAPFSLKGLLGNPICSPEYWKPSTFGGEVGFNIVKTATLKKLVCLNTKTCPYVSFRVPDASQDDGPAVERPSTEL

Molecule: Cc1c(O)cc2c(c1C)OC(C)(CCC(=O)O)CC2 (stereo not drawn) [γ-CEHC, 2-(β-carboxyethyl)-6-hydroxychroman]
IC50 (human recombinant 5-LOX [1]): > 50000 nM

Molecule: CC(C)=CCC/C(C)=C/CC/C(C)=C/CC[C@]1(C)CCc2cc(O)c(C)c(C)c2O1 [γTE, γ-tocotrienol]
IC50 (human recombinant 5-LOX [1]): 4300 nM
Effect on A23187-stimulated 5-LOX translocation (in words) [3]: modestly blocked
IC50 (human recombinant COX-1): 1000 to 2500 nM
Impact on THAP-induced 5-LOX translocation (in words) [4]: did not show any significant impact

Molecule: Cc1cc(O)cc2c1O[C@](C)(CCC[C@H](C)CCC[C@H](C)CCCC(C)C)CC2 [δT, δ-tocopherol]
Effect on THAP-stimulated LTB4 (in words) [2]: no significant effect

B1: human recombinant 5-LOX (Homo sapiens) (protein)
chain: T1 sequence (P09917 1-674)
Km (5-LOX enzyme kinetics): 2.1 µM

Now from value to molecule, other results behind:

IC50 (human recombinant COX-1): ~12000 nM
Molecule: Cc1c(C)c2c(c(C)c1O)CC[C@@](C)(CCC[C@H](C)CCC[C@H](C)CCCC(C)C)O2 [αT, α-tocopherol]

IC50 (human recombinant COX-1): 1000 to 2500 nM
Molecule: Cc1c(O)cc2c(c1C)O[C@](C)(CCC[C@H](C)CCC[C@H](C)CCCC(C)C)CC2 [γT, γ-tocopherol]
Effect on THAP-stimulated LTB4 (in words) [2]: no significant effect

IC50 [5]: 2500 to 5000 nM
Nature of inhibition of 5-LOX (human recombinant 5-LOX [6]): competitive inhibitor
Molecule: Cc1cc(O)cc2c1OC(C)(CCCC(C)CCCC(C)CCCC(C)C(=O)O)CC2 (centres unmarked) [δT-13’-COOH, δT-13’-carboxychromanol]
Impact on THAP-induced 5-LOX translocation (in words) [4]: did not show any significant impact

IC50 (human recombinant 5-LOX [1]): 4300 nM
IC50 (human recombinant COX-1): 1000 to 2500 nM
Ki (human recombinant 5-LOX [6]): 2200 nM
Nature of inhibition of 5-LOX (human recombinant 5-LOX [6]): competitive inhibitor
Molecule: CC(C)=CCC/C(C)=C/CC/C(C)=C/CC[C@]1(C)CCc2cc(O)cc(C)c2O1 [δTE, δ-tocotrienol]
Effect on A23187-stimulated LTB4 (in words) ([2]; neutrophil-like HL-60 cells, data not shown): inhibited
Impact on THAP-induced 5-LOX translocation (in words) [4]: did not show any significant impact

IC50 [5]: 2500 to 5000 nM
Molecule: C/C(=C\CC/C(C)=C/CC[C@]1(C)CCc2cc(O)cc(C)c2O1)CC/C=C(\C)C(=O)O [δTE-13’-COOH, δTE-13’-carboxychromanol]
IC50 (LTB4 in cells): ~260 nM
Impact on THAP-induced 5-LOX translocation (in words) [4]: did not show any significant impact
